Experimental data published in paper PMC9365363 (Clinical Cancer Research, 2022).
Read-outs that look alike come from different tables or passages of the source.

Columns and labels:
PDGFRB = PDGFRB (Homo sapiens, UniProt P09619); assay type: in vivo; settings: known sunitinib target; 4 sunitinib-treated, 7 control tumors
[1] = assay type: in vivo, human; settings: all patients, last dose in the morning on the day of surgery
recurrent GBM = settings: sunitinib-treated patients with a recurrent GBM; cited from earlier work
clinical = settings: human, in vivo, po, 50 mg once daily
PTM signatures = system: PTM signatures; parameters: species or system human; settings: in vivo
[2] = system: tyrosine phosphoproteome of GBM tumors; assay type: in vivo, human; settings: 4 sunitinib-treated versus 7 control GBM tumors, cut-off P < 0.05
GBM cell lines = test: cells; assay type: cell-based; settings: Homo sapiens, 72 h
PDGFRA = PDGFRA (Homo sapiens, UniProt P16234); assay type: in vivo; settings: known sunitinib target; 4 sunitinib-treated, 7 control tumors
Chain of PDGFRA (P16234 24-1089): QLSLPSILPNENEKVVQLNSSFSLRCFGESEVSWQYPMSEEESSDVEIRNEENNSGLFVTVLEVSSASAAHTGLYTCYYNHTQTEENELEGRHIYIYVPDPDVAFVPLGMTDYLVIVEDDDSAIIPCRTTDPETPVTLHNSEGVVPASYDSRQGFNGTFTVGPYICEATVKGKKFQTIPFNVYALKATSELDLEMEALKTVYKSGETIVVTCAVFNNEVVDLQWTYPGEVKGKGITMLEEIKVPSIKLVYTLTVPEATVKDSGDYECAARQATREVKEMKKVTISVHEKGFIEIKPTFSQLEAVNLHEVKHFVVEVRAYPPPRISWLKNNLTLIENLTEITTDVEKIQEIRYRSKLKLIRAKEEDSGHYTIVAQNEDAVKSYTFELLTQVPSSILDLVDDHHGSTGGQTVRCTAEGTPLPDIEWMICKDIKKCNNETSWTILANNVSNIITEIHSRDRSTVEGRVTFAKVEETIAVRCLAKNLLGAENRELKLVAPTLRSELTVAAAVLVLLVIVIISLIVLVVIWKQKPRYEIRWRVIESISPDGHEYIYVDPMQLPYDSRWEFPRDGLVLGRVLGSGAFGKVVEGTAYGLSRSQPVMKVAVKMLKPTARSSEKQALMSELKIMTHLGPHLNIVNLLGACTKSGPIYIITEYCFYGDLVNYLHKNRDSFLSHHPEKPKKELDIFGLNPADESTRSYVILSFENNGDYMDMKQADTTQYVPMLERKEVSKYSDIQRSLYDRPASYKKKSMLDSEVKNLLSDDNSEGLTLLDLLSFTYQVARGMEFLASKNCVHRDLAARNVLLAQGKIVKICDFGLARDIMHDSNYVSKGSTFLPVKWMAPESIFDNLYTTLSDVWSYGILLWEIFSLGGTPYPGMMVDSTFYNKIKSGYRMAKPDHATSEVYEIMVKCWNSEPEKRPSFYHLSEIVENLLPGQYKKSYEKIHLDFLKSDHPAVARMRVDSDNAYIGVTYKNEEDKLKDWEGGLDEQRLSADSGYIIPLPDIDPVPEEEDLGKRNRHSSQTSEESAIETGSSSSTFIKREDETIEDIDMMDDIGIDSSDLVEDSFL

[3] = 5 patients with GBM
398 cancer cell lines = settings: read-out: Geometric mean of the IC50, ref https://www.cancerrxgene.org/compound/Sunitinib/5/overview/ic50; cited from earlier work

Chain of PDGFRB (P09619 33-1106): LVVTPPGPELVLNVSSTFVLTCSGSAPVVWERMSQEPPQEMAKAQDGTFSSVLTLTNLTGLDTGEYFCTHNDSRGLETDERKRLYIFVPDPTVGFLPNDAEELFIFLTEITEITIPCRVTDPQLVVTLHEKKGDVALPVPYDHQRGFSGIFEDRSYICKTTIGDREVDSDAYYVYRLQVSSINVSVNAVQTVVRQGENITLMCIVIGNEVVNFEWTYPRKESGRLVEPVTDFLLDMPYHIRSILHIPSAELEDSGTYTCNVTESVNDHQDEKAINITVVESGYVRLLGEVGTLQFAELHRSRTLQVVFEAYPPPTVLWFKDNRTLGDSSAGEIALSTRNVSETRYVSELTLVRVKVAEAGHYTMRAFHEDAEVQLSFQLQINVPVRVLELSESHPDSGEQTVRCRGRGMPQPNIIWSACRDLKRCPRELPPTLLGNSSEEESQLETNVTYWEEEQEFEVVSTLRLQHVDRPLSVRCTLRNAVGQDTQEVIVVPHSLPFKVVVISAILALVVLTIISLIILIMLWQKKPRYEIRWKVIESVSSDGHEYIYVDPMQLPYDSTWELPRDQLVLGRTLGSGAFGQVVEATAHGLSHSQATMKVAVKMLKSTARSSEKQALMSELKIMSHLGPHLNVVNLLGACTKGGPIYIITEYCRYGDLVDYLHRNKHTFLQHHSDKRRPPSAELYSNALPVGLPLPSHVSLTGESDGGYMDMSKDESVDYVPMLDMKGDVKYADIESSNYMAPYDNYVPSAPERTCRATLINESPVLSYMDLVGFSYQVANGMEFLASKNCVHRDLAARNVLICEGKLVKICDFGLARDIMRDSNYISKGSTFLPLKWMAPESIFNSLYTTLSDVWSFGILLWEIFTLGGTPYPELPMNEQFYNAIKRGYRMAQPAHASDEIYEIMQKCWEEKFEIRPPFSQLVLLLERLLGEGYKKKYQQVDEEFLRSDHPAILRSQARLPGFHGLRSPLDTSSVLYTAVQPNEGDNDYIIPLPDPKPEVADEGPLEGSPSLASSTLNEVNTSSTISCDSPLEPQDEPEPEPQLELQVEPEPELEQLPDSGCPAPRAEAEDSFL

In the case of `CCN(CC)CCNC(=O)c1c(C)[nH]c(/C=C2\C(=O)Nc3ccc(F)cc32)c1C` [sunitinib], the “Kinase activity of PDGFRB (INKA), sunitinib-treated versus control” value (PDGFRB) is listed as “low and not significantly different between the groups”, the “Perioperative complications of tumor resection after preoperative treatment” value [1] is listed as “without perioperative complications” and the “Tumor response and clinical benefit” value (recurrent GBM) is listed as “no tumor response nor clinical benefit”. The Kp (clinical) was 10, the concentration at 11 days (clinical) was 111 nM and the concentration at 12 days (clinical) was 255 nM. It also gave a concentration at 13 days (clinical) of 479 nM, a concentration at 14 days (clinical) of 105 nM and a concentration at 18 days (clinical) of 194 nM. For the same compound, the “Moderately significant enriched signatures (PTM-SEA)” value (PTM signatures) was “Two moderately significant NetPath derived signatures”, the “Strongly significantly enriched phosphosite signatures (PTM-SEA)” value (PTM signatures) was “three strongly significantly enriched phosphosite signatures” and the “Number of significantly downregulated phosphopeptides” value [2] was 23. For the same compound, the “Number of significantly upregulated phosphopeptides” value [2] was 108, the IC50 (GBM cell lines; read-out: Median IC50 in GBM cell lines) was 5.4 µM and the IC50 (GBM cell lines; read-out: Range of IC50 in GBM cell lines) was 3 to 8.5 µM. The “Kinase activity of PDGFRA (INKA), sunitinib-treated versus control” value (PDGFRA) was “low and not significantly different between the groups”, the “Relation between sunitinib tumor accumulation and use of dexamethasone and anticonvulsants” value [3] was “No relation” and the IC50 (398 cancer cell lines) was 11.6 µM.
